Values after ≈ are worked out from the molar mass of the structure shown. Read-outs that look alike come from different tables or passages of the source.
Legend:
cytochrome P450 = experiment: Decay of cytochrome P450 substrates in in vitro culture of the silkworm midgut (HPLC); conditions: for HPLC peak area of substrate, Sample 1 / HPLC peak area of substrate, Sample 2: midgut culture, raw data of Fig. 3; for HPLC peak area of substrate: silkworm (Bombyx mori)
Experimental: Silkworm midgut was incubated in medium with cytochrome P450 substrates at 30 °C. The samples were collected, extracted by acetone, and evaporated. The amounts of substrates were determined by HPLC analysis.
Silkworms (5th instar, 5 days) were dissected in a buffer (10 mM HEPES/NaOH, 0.9% NaCl, pH 7.9), and isolated organs were incubated with 3 mL TC-100 medium containing 10% fetal bovine serum, 50 µg/ml gentamicin, and substrates for the metabolic reaction. Whole samples (medium and organ) were homogenized and extracted by equal volumes of acetone followed by evaporation. Extracted samples were dissolved in 50 mM NaOAc buffer and treated with beta-glucosidase to measure the fluorescence of metabolized 7-ethoxycoumarin[6]. […] Samples for HPLC were dissolved in 50% methanol. HPLC analysis was performed using a PEGASIL ODS SP column (φ4.5 mm × 250 mm) with isocratic elution at a flow rate of 1 ml/min.

in vivo = conditions: for HPLC peak area in hemolymph: silkworm (Bombyx mori)
Experimental: Antibiotics were injected into silkworm hemolymph and hemolymph was collected by cutting the legs at the indicated time.
Antibiotics dissolved in saline were injected into the hemolymph of 5th instar silkworms using a 1-mL syringe attached to a 27 G needle. Hemolymph was harvested from abdominal appendages by cutting them with scissors at the indicated time-points after administration, and mixed with an equal volume of acetone. Samples were centrifuged at 15,000 rpm for 5 min at 4 °C, and the supernatants were evaporated with a centrifuge evaporator[18]. The dried materials were dissolved in 50% methanol and filtrated through a 0.45-µm filter. […] The amount of antibiotics in the sample was quantified from the peak area of the chromatogram.

[1] = in vivo, 10 mg/kg; cited from earlier work
Candida albicans [2] = experiment: Silkworm infection model with Candida albicans (ED50); type: in vivo, Bombyx mori (silkworm)
Candida albicans [3] = experiment: Antifungal activity (MIC) by micro dilution with or without silkworm hemolymph; type: cell-based
Experimental: Antimicrobial and antifungal activities of each compound were measured by a micro dilution method[19],[20]. To measure protein binding to antifungal activity, silkworm hemolymph was collected by cutting the pseudopodium using scissors, and centrifuged at 3000 rpm for 5 min at 4 °C.

[4] = Protein-binding capacity in silkworm hemolymph (filter unit, HPLC); conditions: silkworm hemolymph
[5] = dog, cited from earlier work

Cn1c(=O)c2c(ncn2C)n(C)c1=O [Caffeine]
HPLC peak area of substrate, Sample 1 (cytochrome P450; 0 h): 236597
HPLC peak area of substrate, Sample 2 (cytochrome P450; 0 h): 235789
HPLC peak area of substrate, Sample 1 (cytochrome P450; 1 h): 225184
HPLC peak area of substrate, Sample 2 (cytochrome P450; 1 h): 213119
HPLC peak area of substrate, Sample 1 (cytochrome P450; 4 h): 220757
HPLC peak area of substrate, Sample 2 (cytochrome P450; 4 h): 220302
HPLC peak area of substrate, Sample 1 (cytochrome P450; 20 h): 226873
HPLC peak area of substrate, Sample 2 (cytochrome P450; 20 h): 222211

O=C(N[C@H](CO)[C@H](O)c1ccc([N+](=O)[O-])cc1)C(Cl)Cl [Chloramphenicol]
Cltot (total body clearance) (in vivo; in vivo): 0.15 mL/g/h
Time-course of the decrease in concentration in hemolymph (in words) (in vivo; in vivo): biphasic
half-life (in vivo; in vivo): 360 min
HPLC peak area in hemolymph (in vivo; in vivo, 0.1 min): 10505876
HPLC peak area in hemolymph (in vivo; in vivo, 1 min): 8079061
HPLC peak area in hemolymph (in vivo; in vivo, 5 min): 4188656
HPLC peak area in hemolymph (in vivo; in vivo, 10 min): 3076056
HPLC peak area in hemolymph (in vivo; in vivo, 20 min): 2727973
HPLC peak area in hemolymph (in vivo; in vivo, 30 min): 1928231
HPLC peak area in hemolymph (in vivo; in vivo, 60 min): 2239912
HPLC peak area in hemolymph (in vivo; in vivo, 90 min): 1941121
HPLC peak area in hemolymph (in vivo; in vivo, 120 min): 1803643
HPLC peak area in hemolymph (in vivo; in vivo, 180 min): 1414738
HPLC peak area in hemolymph (in vivo; in vivo, 240 min): 1202608
Cltot [1]: 0.24 mL/g/h

O=C(O)Cc1ccccc1Nc1c(Cl)cccc1Cl [Diclofenac]
Metabolism in the silkworm midgut (in words) (cytochrome P450): metabolized in the silkworm midgut
HPLC peak area of substrate (cytochrome P450; 0 h): 2620000
HPLC peak area of substrate (cytochrome P450; 1 h): 2450000
HPLC peak area of substrate (cytochrome P450; 4 h): 2250000
HPLC peak area of substrate (cytochrome P450; 20 h): 1370000

OC(Cn1cncn1)(Cn1cncn1)c1ccc(F)cc1F [Fluconazole]
Therapeutic effect in the silkworm infection model (in words) (Candida albicans [2]; silkworm infection model): potent therapeutic effects at a low dose
ED50 (Candida albicans [2]; silkworm infection model with Candida albicans): 0.7 mg/kg
MIC (Candida albicans [3]; read-out: MIC with 10% hemolymph (B), with 10% silkworm hemolymph): 3.2 µg/mL (≈ 10.4 µM)
MIC (Candida albicans [3]; without silkworm hemolymph, read-out: MIC without hemolymph (A)): 0.4 µg/mL (≈ 1.31 µM)
half-life (in vivo; hemolymph): 720 min
Cltot (total body clearance) (in vivo; in vivo): 0.02 mL/g/h
Time-course of the decrease in concentration in hemolymph (in words) (in vivo; in vivo): biphasic
HPLC peak area in hemolymph (in vivo; in vivo, 0.1 min): 4424583
HPLC peak area in hemolymph (in vivo; in vivo, 1 min): 3714240
HPLC peak area in hemolymph (in vivo; in vivo, 5 min): 1821531
HPLC peak area in hemolymph (in vivo; in vivo, 10 min): 2367593
HPLC peak area in hemolymph (in vivo; in vivo, 20 min): 2257323
HPLC peak area in hemolymph (in vivo; in vivo, 30 min): 2040721
HPLC peak area in hemolymph (in vivo; in vivo, 60 min): 1663340
HPLC peak area in hemolymph (in vivo; in vivo, 105 min): 1575678
HPLC peak area in hemolymph (in vivo; in vivo, 120 min): 1440231
HPLC peak area in hemolymph (in vivo; in vivo, 180 min): 1474050
HPLC peak area in hemolymph (in vivo; in vivo, 240 min): 1455753
HPLC peak area in hemolymph (in vivo; in vivo, 360 min): 1088734
fraction unbound at 10 min, 10 µM [4]: 0.35
Vdss ([5]; dose 10 mg/kg): 0.7 mL/g
t1/2 ([5]; dose 10 mg/kg): 13.0 h
Cltot ([5]; in vivo, 10 mg/kg): 0.04 mL/g/h
